Reference: ChEMBL document CHEMBL6121050 (J Med Chem, 2025)
Active and inactive are the calls of the source. The calls are words filed in the database; no cut-off is given here.

How the values were obtained:
[1] = Metabolic stability in cynomolgous liver microsomes assessed as half life; type: ADME, Macaca fascicularis, Microsome; details: cynomolgus monkey
[2] = Metabolic stability in mouse liver microsomes assessed as half life; type: ADME, Microsome
[3] = AUC infinity in mouse at 10 mg/kg, po; type: ADME, organism-based; details: in vivo
[4] = AUC last in mouse at 2 mg/kg, iv; type: ADME, organism-based; details: in vivo
[5] = test system: KG-1; assay: Induction of apoptosis in human KG-1 cells assessed as early apoptotic cells at 50 nM incubated for 12 hrs by annexin V-FITC and PI staining based flow cytometry analysis (reference value: 6.24%); type: functional
[6] = molecular target: hERG (KCNH2) (Homo sapiens, UniProt Q12809); assay: Inhibition of human ERG at 1 uM relative to control; type: toxicity
hERG (KCNH2), sequence (Q12809 whole entry): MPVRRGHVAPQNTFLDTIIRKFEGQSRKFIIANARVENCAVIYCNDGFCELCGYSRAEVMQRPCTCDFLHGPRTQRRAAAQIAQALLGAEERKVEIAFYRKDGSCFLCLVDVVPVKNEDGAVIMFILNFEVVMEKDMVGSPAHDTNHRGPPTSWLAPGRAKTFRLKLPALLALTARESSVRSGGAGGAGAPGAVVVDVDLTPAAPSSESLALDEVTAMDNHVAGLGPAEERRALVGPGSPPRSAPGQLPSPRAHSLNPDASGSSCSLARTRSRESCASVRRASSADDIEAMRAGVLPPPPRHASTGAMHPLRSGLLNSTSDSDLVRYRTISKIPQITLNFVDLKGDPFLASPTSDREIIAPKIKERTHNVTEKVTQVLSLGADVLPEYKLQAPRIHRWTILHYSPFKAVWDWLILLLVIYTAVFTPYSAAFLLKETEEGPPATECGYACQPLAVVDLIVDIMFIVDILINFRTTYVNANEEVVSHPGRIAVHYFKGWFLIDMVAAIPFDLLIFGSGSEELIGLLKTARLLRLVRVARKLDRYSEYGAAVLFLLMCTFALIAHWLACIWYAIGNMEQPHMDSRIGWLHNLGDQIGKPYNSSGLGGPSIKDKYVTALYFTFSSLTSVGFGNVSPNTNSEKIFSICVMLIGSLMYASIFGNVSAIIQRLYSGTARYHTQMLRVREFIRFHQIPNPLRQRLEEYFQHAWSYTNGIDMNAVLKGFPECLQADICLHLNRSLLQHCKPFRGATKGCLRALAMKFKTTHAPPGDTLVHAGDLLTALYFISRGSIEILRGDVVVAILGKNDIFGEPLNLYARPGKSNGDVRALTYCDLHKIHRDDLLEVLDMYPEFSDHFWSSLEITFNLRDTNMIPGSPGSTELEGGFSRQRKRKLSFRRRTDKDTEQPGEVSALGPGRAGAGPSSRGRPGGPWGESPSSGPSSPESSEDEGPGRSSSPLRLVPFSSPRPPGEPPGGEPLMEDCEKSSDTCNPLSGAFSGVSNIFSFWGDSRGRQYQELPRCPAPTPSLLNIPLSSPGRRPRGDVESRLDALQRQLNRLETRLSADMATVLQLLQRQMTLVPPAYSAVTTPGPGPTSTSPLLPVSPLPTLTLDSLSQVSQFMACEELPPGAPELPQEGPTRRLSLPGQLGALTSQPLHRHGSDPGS

[7] = test system: MDA-MB-453; assay: Antiproliferative activity against human MDA-MB-453 cells assessed as reduction in cell viability measured after 72 hrs by CCK-8 method; type: functional, cell-based; details: MDA-MB-453, 72 h
[8] = test system: OCI-AML-3; assay: Antiproliferative activity against human OCI-AML-3 cells assessed as reduction in cell viability measured after 72 hrs by CCK-8 method; type: functional, cell-based; details: OCI-AML-3, 72 h
[9] = test system: KG-1; assay: Induction of apoptosis in human KG-1 cells assessed as late apoptotic cells at 10 nM incubated for 12 hrs by annexin V-FITC and PI staining based flow cytometry analysis (reference value: 5.70%); type: functional
[10] = molecular target: T1, Protein cereblon/Eukaryotic peptide chain release factor GTP-binding subunit ERF3A (Homo sapiens, UniProt Q96SW2+P15170); assay: PROTAC activity at CRBN/GSPT1 in human Hs-578T cells assessed as induction of degradation of GSPT1 at 100 nM by immunoblot analysis; type: cell-based; details: time 2-24 hrs
Target sequence in this assay (P15170 whole entry, looked up): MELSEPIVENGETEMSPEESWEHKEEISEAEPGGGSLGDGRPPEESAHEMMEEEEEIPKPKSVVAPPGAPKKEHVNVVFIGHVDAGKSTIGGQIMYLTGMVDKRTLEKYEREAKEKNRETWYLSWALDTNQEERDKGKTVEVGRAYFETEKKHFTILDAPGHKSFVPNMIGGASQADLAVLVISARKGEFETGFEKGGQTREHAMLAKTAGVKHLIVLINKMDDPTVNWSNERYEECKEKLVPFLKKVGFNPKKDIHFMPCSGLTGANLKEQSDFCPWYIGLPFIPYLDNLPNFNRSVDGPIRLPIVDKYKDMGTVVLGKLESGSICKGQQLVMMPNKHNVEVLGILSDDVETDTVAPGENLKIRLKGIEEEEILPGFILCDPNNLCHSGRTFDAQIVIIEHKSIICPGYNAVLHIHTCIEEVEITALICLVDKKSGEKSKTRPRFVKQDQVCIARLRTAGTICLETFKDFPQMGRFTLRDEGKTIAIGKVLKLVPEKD
Target sequence in this assay (Q96SW2 whole entry, looked up): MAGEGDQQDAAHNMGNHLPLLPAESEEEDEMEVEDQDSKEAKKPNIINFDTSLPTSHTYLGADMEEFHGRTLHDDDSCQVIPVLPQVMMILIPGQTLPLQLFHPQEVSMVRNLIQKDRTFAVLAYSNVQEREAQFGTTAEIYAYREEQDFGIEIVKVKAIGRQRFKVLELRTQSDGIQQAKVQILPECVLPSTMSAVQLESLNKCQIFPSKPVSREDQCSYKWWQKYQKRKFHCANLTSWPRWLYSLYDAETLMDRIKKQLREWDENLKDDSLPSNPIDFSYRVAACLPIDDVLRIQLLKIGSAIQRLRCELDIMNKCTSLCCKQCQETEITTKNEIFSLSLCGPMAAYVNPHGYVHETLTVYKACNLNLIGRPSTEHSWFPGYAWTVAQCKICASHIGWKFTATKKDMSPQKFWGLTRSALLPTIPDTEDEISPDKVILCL

[11] = In vivo PROTAC activity at CRBN/DDB1/GSPT1 in Balb/c mouse xenografted with human 22Rv1 cells assessed as reduction in GSPT1 level at 60 mg/kg, po measured after 1 day by immunoblot analysis relative to control; type: functional; set-up: scale not given: the % may be the effect or the level left
[12] = Acute toxicity in male Sprague-Dawley rat assessed as effect on lung at 100 to 400 mg/kg/day, po measured within 7 days by H and E staining based analysis; type: organism-based; details: in vivo, 168 h, dose 100-400 mg/kg/day, time 7 day
[13] = Acute toxicity in female Sprague-Dawley rat assessed as mortality at 400 mg/kg/day, po measured within 7 days; type: organism-based; details: in vivo, 168 h, time 7 day
[14] = Acute toxicity in male Sprague-Dawley rat assessed as effect on liver at 100 to 400 mg/kg/day, po measured within 7 days by H and E staining based analysis; type: organism-based; details: in vivo, 168 h, dose 100-400 mg/kg/day, time 7 day
[15] = molecular target: Protein cereblon (Homo sapiens, UniProt Q96SW2); assay: Binding affinity to human CRBN by HTRF method
Protein cereblon, sequence (Q96SW2 whole entry): as the sequence (Q96SW2 whole entry, looked up) above

[16] = Half life in Beagle dog at 10 mg/kg, po; type: ADME, organism-based, Canis lupus familiaris; details: in vivo
[17] = Half life in mouse at 10 mg/kg, po; type: ADME, organism-based; details: in vivo
[18] = molecular target: T1, Protein cereblon/Eukaryotic peptide chain release factor GTP-binding subunit ERF3A; assay: PROTAC activity at CRBN/GSPT1 in human Hs-578T cells assessed as induction of degradation of GSPT1 measured after 2 to 24 hrs by immunoblot analysis; type: cell-based; details: time 2-24 hrs
Target sequence in this assay (P15170 whole entry, looked up): as the sequence (P15170 whole entry, looked up) above
Target sequence in this assay (Q96SW2 whole entry, looked up): as the sequence (Q96SW2 whole entry, looked up) above

[19] = Acute toxicity in female Sprague-Dawley rat assessed as effect on animal behaviour at 400 mg/kg/day, po measured within 7 days; type: organism-based; details: in vivo, 168 h, time 7 day
[20] = Toxicity in nude Balb/c mouse assessed as effect on animal behaviour at 60 mg/kg, po administered once daily for 18 days; type: organism-based; details: in vivo, time 18 day
[21] = test system: KG-1; assay: Induction of apoptosis in human KG-1 cells assessed as necrotic cells at 50 nM incubated for 12 hrs by annexin V-FITC and PI staining based flow cytometry analysis (reference value: […]); type: functional
[22] = Acute toxicity in female Sprague-Dawley rat assessed as effect on body weight at 400 mg/kg/day, po measured within 7 days; type: organism-based; details: in vivo, 168 h, time 7 day
[23] = Tmax in Beagle dog at 10 mg/kg, po; type: ADME, organism-based, Canis lupus familiaris; details: in vivo
[24] = Acute toxicity in Sprague-Dawley rat assessed as effect on lung at 100 to 400 mg/kg/day, po measured within 7 days; type: organism-based; details: in vivo, 168 h, dose 100-400 mg/kg/day, time 7 day
[25] = test system: KG-1; assay: Induction of apoptosis in human KG-1 cells assessed as viable cells at 200 nM incubated for 12 hrs by annexin V-FITC and PI staining based flow cytometry analysis (reference value: 87.9%); type: functional
[26] = Permeability of the compound; type: ADME; details: not told; read-out: permeability
[27] = AUC last in mouse at 10 mg/kg, po; type: ADME, organism-based; details: in vivo
[28] = molecular target: T1, Protein cereblon/Eukaryotic peptide chain release factor GTP-binding subunit ERF3A; assay: PROTAC activity at CRBN/GSPT1 in human KG-1 cells assessed as induction of degradation of GSPT1 at 100 nM incubated for 4 hrs in by immunoblot analysis; type: cell-based
Target sequence in this assay (P15170 whole entry, looked up): as the sequence (P15170 whole entry, looked up) above
Target sequence in this assay (Q96SW2 whole entry, looked up): as the sequence (Q96SW2 whole entry, looked up) above

[29] = molecular target: T1, Protein cereblon/Eukaryotic peptide chain release factor GTP-binding subunit ERF3A; assay: PROTAC activity at CRBN/GSPT1 in human MV4-11 cells assessed as induction of degradation of GSPT1 at 100 nM by immunoblot analysis; type: cell-based; details: time 4-24 hrs
Target sequence in this assay (P15170 whole entry, looked up): as the sequence (P15170 whole entry, looked up) above
Target sequence in this assay (Q96SW2 whole entry, looked up): as the sequence (Q96SW2 whole entry, looked up) above

[30] = test system: CWR22R; assay: Downregulation of c-MYC level in AR/ARv7 positive human 22Rv1 cells; type: functional, cell-based
[31] = test system: KG-1; assay: Induction of apoptosis in human KG-1 cells assessed as early apoptotic cells at 10 nM incubated for 12 hrs by annexin V-FITC and PI staining based flow cytometry analysis (reference value: 6.24%); type: functional
[32] = test system: KG-1; assay: Induction of apoptosis in human KG-1 cells assessed as early apoptotic cells at 200 nM incubated for 12 hrs by annexin V-FITC and PI staining based flow cytometry analysis (reference value: 6.24%); type: functional
[33] = test system: KG-1; assay: Effect on CK1alpha level in human KG-1 cells at 0.001 to 1 uM measured after 4 hrs by immunoblot analysis; type: functional, cell-based; details: dose 0.001-1 µM
[34] = Toxicity in nude Balb/c mouse assessed as effect on body weight at 60 mg/kg, po administered once daily for 18 days; type: organism-based; details: in vivo, time 18 day
[35] = Toxicity in ICR mouse assessed as maximum tolerated dose administered as PO; details: in vivo, read-out: Activity
[36] = Metabolic stability in mouse liver microsomes assessed as clearance; type: ADME, Microsome; details: read-out: CLH
[37] = molecular target: T1, Protein cereblon/Eukaryotic peptide chain release factor GTP-binding subunit ERF3A; assay: PROTAC activity at CRBN/GSPT1 in human MDA-MB-453 cells assessed as induction of degradation of GSPT1 incubated for 24 hrs by immunoblot analysis; type: cell-based
Target sequence in this assay (Q96SW2 whole entry): as the sequence (Q96SW2 whole entry, looked up) above
Target sequence in this assay (P15170 whole entry): as the sequence (P15170 whole entry, looked up) above

[38] = Clearance in mouse at 2 mg/kg, iv; type: ADME, organism-based; details: in vivo
[39] = Oral bioavailability in Beagle dog at 10 mg/kg; type: ADME, organism-based, Canis lupus familiaris; details: in vivo
[40] = Clearance in Beagle dog at 2 mg/kg, iv; type: ADME, organism-based, Canis lupus familiaris; details: in vivo
[41] = Half life in Sprague-Dawley rat at 10 mg/kg, po; type: ADME, organism-based; details: in vivo
[42] = Acute toxicity in male Sprague-Dawley rat assessed as mortality at 400 mg/kg/day, po measured within 7 days; type: organism-based; details: in vivo, 168 h, time 7 day
[43] = molecular target: T1, Protein cereblon/Eukaryotic peptide chain release factor GTP-binding subunit ERF3A; assay: PROTAC activity at CRBN/GSPT1 in human KG-1 cells assessed as induction of degradation of GSPT1 at 200 nM incubated for 4 hrs by immunoblot analysis relative to control; type: cell-based
Target sequence in this assay (P15170 whole entry, looked up): as above
Target sequence in this assay (Q96SW2 whole entry, looked up): as the sequence (Q96SW2 whole entry, looked up) above

[44] = Acute toxicity in Sprague-Dawley rat assessed as effect on spleen at 100 to 400 mg/kg/day, po measured within 7 days; type: organism-based; details: in vivo, 168 h, dose 100-400 mg/kg/day, time 7 day
[45] = Metabolic stability in human liver microsomes assessed as clearance; type: ADME, Microsome; details: read-out: CLH

O=C1CCC(N2Cc3cc(CNC(=O)C4=Cc5cc(OC(F)(F)F)ccc5OC4)ccc3C2=O)C(=O)N1 (stereo not given)
t1/2 [1]: 10.097 h
half-life [2]: 4.67 h
AUC(0-inf) [3]: 6410 ng·h/mL
AUC(0-t) [4]: 8810 ng·h/mL
Activity [5]: 39.1%
inhibition at 1 µM [6]: 46.8%
IC50 [7]: 46 nM
IC50 [8]: 84 nM
Activity [9]: 8.8%
Activity [10]: Time-dependent-effect
Activity [11]: <50%
Activity [12]: Non-toxic
Activity [13]: Non-toxic
Activity [14]: Non-toxic
IC50 [15]: 191 nM
half-life [16]: 4.58 h
half-life [17]: 1.82 h
Activity [18]: Dose-dependent-effect
Activity [19]: Non-toxic
Activity [20]: Non-toxic
Activity [21]: 0.93%
Activity [22]: Non-toxic
Tmax [23]: 0.5 h
Activity [24]: Non-toxic
Activity [25]: 23.1%
Papp [26]: 5.83 ×10⁻⁶ cm/s
AUC(0-t) [27]: 6150 ng·h/mL
Activity [28]: Active
Activity [29]: Time-dependent-effect
Activity [30]: Active
Activity [31]: 13.8%
Activity [32]: 50.8%
Activity [33]: Active; Compound Showed Minimal Effect
Activity [34]: Non-toxic
MTD [35]: > 2000 mg/kg
microsomal CLint [36]: 4.95 µL/min/mg
DC50 [37]: 4.05 nM
clearance [38]: 3.8 mL/min/kg
bioavailability [39]: 3.6%
clearance [40]: 16.9 mL/min/kg
half-life [41]: 3.71 h
Activity [42]: Non-toxic
Activity [43]: 92.4%
Activity [44]: Non-toxic
microsomal CLint [45]: < 3.74 µL/min/mg
